# Measurements: patent US12611406B2, “Oxopiperazine derivatives for the treatment of cancer” (Inthera Bioscience AG, priority 2020, dated 2026)
# What was measured:
# [1] = Metabolic stability in intestinal microsomes; format: in vitro ADME; conditions: monkey compared to human
# Procedure: In vitro testing also supports the use of mouse, Beagle dog, and cynomolgus monkey models to assay dosing and effectiveness of Compound 1. […] The metabolic profiles of hepatocytes from mouse, dog, and monkey that were cultured with Compound 1 were assessed. Similarly, the metabolic stability of Compound 1 was assayed in vitro using intestinal microsomes from mouse, rat, dog, monkey, and humans.
# [2] = tested on: NCI-H660; test: NCI-H660 prostate cancer CDX mouse model; format: in vivo; conditions: for Tumor growth inhibition: 6 weeks
# Excerpt: Left panel: Tumor growth curves. Right panel: Body weight development. The dosing regimen is indicated as dots below the curves. BID: twice daily treatment. QW: once weekly treatment. p.o.: per oral.
# NCI-H660 cells represent a rather far advanced PC type in which not only the tumor suppressor functions of Rb1 and p53 have been lost (see Table 1). Furthermore, the cells already have developed a small cell phenotype characteristic of advanced treatment-resistant PC. In contrast, 22Rv1 tumor cells that are wild-type for Rb1 and p53 pathways were less sensitive to Compound 1 treatment when a once weekly dosing scheme was used.
# Values larger than 100% indicate tumor regression.
smiles,measurement,setting,value
"CC(C)C[C@@H]1NCCN([C@@H](CC(C)C)C(=O)N2CCC3(C[C@@H]2C)OCC(CN2CCCC2)CO3)C1=O (stereo partly drawn) [Compound 1, (S)-3-isobutyl-1-((S)-4-methyl-1-((S)-8-methyl-3-(pyrrolidin-1-ylmethyl)-1,5-dioxa-9-azaspiro[5.5]undecan-9-yl)-1-oxopentan-2-yl)piperazin-2-one]",stability in intestinal microsomes,[1],lower stability
same,Tumor growth inhibition,"[2]; once weekly 15 mg/kg/day, p 0.002",74% (0.002)/
same,Tumor growth inhibition,"[2]; once weekly 30 mg/kg/day, p 0.001",84% (0.001)
same,tumor growth,[2]; once weekly 60 mg/kg,complete block of tumor growth
same,Tumor growth inhibition,"[2]; once weekly 60 mg/kg/day single dose, p <0.001",99% (<0.001)/*6 weeks
